These results are taken from patent publication US20160244437A1, “SUBSTITUTED PHENYLALANINE DERIVATIVES” (BAYER PHARMA AKTIENGESELLSCHAFT, priority 2013, published 2016).

As a reminder, the IC50 is the concentration at which inhibition is half-maximal. Read a low IC50 as greater potency in that assay.

In one experiment the target is T1, human factor XIa (Homo sapiens, UniProt P03951).
T1 construct: purchased Kordia
Briefly: Measurement of FXIa inhibition (fluorogenic peptide substrate Boc-Glu(OBzl)-Ala-Arg-AMC). Conditions: factor XIa from Kordia 0.45 nM, 15 min pre-incubation, 30 min at 22° C., fluorescence. The class given is biochemical.

The next experiment concerns human and animal plasma. Briefly: Determination of anticoagulatory activity: activated partial thromboplastin time (aPTT) in plasma. Conditions: concentration of test substance which brings about a 1.5-fold extension of the aPTT; plasma in vitro, C.K. Prest kit. As for the experimental part:
The anticoagulatory activity of the test substances is determined in vitro in human and animal plasma (for example mouse, rat, rabbit, pig and dog plasma). To this end, blood is drawn off in a mixing ratio of sodium citrate/blood of 1:9 using a 0.11 molar sodium citrate solution as receiver. Immediately after the blood has been drawn off, it is mixed thoroughly and centrifuged at about 4000 g for 15 minutes. The supernatant is pipetted off.
The activated partial thromboplastin time (aPTT) is determined in the presence of varying concentrations of test substance or the corresponding solvent using a commercial test kit (C.K. Prest from Diagnostica Stago). The test compounds are incubated with the plasma and the PTT reagent (cephalin, kaolin) at 37° C. for 3 minutes. Coagulation is then started by addition of a 25 mM aqueous calcium chloride solution, and the time when coagulation occurs is determined. The concentration of test substance which brings about a 1.5-fold extension of the aPTT is determined.

SMILES strings stand for the structures. Counter-ions that a name gives are not always drawn.

T1 sequence (P03951 388-625 limits assumed): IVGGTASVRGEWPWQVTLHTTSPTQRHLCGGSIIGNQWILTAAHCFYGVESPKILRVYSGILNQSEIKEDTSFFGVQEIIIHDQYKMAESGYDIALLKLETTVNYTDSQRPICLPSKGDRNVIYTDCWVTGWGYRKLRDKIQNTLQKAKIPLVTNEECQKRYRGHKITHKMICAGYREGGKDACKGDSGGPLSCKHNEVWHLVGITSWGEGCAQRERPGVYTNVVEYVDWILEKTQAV
T1 sequence (P03951 19-387 partner limits assumed): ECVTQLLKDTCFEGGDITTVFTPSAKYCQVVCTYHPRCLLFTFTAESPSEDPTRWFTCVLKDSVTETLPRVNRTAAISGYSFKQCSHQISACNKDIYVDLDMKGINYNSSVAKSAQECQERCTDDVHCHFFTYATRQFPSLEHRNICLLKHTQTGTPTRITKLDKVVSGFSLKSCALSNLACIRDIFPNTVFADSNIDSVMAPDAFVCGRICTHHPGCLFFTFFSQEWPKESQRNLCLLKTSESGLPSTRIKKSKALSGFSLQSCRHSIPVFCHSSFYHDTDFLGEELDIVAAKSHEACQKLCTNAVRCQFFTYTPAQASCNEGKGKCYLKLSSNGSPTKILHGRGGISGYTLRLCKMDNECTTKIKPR

Take `Cc1cc(C(=O)NC2C3CNCC32)ccc1-c1cccc(C[C@H](NC(=O)C2CCC(CN)CC2)C(=O)Nc2ccc(-c3nnn[nH]3)cc2)c1` (stereo partly drawn) [Example 33, 3′-[(2S)-2-({[trans-4-(Aminomethyl)cyclohexyl]carbonyl}amino)-3-oxo-3-{[4-(1H-tetrazol-5-yl)phenyl]amino}propyl]-N-(3-azabicyclo[3.1.0]hex-6-yl)-2-methylbiphenyl-4-carboxamide hydrochloride]: the IC50 on human factor XIa was found to be 7.6 nM. Further, the aPTT in the experiment with human and animal plasma came out at 0.08 µmol/L.
On the same counts, the results for `CCN(CC)CCNC(=O)c1cccc(-c2cccc(C[C@H](NC(=O)[C@H]3CC[C@H](CN)CC3)C(=O)Nc3ccc(-c4nnn[nH]4)cc3)c2)c1` [Example 34, 3′-[(2S)-2-({[trans-4-(Aminomethyl)cyclohexyl]carbonyl}amino)-3-oxo-3-{[4-(1H-tetrazol-5-yl)phenyl]amino}propyl]-N-[2-(diethylamino)ethyl]biphenyl-3-carboxamide hydrochloride] are 8.6 nM and 0.26 µmol/L.
In turn, `Cc1ccc(S(=O)(=O)N2CCCC2)cc1-c1cccc(C[C@H](NC(=O)[C@H]2CC[C@H](CN)CC2)C(=O)Nc2ccc(-c3noc(=O)[nH]3)cc2)c1` [Example 36, trans-4-(Aminomethyl)-N-[(2S)-3-[2′-methyl-5′-(pyrrolidin-1-ylsulphonyl)biphenyl-3-yl]-1-oxo-1-{[4-(5-oxo-4,5-dihydro-1,2,4-oxadiazol-3-yl)phenyl]amino}propan-2-yl]cyclohexanecarboxamide hydrochloride] yielded an IC50 at human factor XIa of 2.2 nM. The compound also came in with an aPTT in the experiment on human and animal plasma of 0.12 µmol/L.
On the same counts, the results for `NC[C@H]1CC[C@H](C(=O)N[C@@H](Cc2cccc(-c3ccc(C(=O)NCCN4CCCCC4)cc3)c2)C(=O)Nc2ccc(-c3nnn[nH]3)cc2)CC1` [Example 37, 3′-[(2S)-2-({[trans-4-(Aminomethyl)cyclohexyl]carbonyl}amino)-3-oxo-3-{[4-(1H-tetrazol-5-yl)phenyl]amino}propyl]-N-[2-(piperidin-1-yl)ethyl]biphenyl-4-carboxamide hydrochloride] are 5.6 nM and 0.19 µmol/L.
The like results for `NC[C@H]1CC[C@H](C(=O)N[C@@H](Cc2cccc(-c3cc(C(N)=O)ccc3Cl)c2)C(=O)Nc2ccc(-c3nnn[nH]3)cc2)CC1` [Example 38, 3′-[(2S)-2-({[trans-4-(Aminomethyl)cyclohexyl]carbonyl}amino)-3-oxo-3-{[4-(1H-tetrazol-5-yl)phenyl]amino}propyl]-6-chlorobiphenyl-3-carboxamide hydrochloride] were, in that order, 4.8 nM and 0.2 µmol/L.
On the same counts, the results for `CN(C)CCNC(=O)c1cccc(-c2cccc(C[C@H](NC(=O)[C@H]3CC[C@H](CN)CC3)C(=O)Nc3ccc(-c4nnn[nH]4)cc3)c2)c1` [Example 39, 3′-[(2S)-2-({[trans-4-(Aminomethyl)cyclohexyl]carbonyl}amino)-3-oxo-3-{[4-(1H-tetrazol-5-yl)phenyl]amino}propyl]-N-[2-(dimethylamino)ethyl]biphenyl-3-carboxamide hydrochloride] are 8.9 nM and 0.22 µmol/L.
`CCN(CC)CCNC(=O)c1cccc(-c2cccc(C[C@H](NC(=O)[C@H]3CC[C@H](CN)CC3)C(=O)Nc3ccc(-c4nnc(Cl)[nH]4)cc3)c2)c1` [Example 40, 3′-[(2S)-2-({[trans-4-(Aminomethyl)cyclohexyl]carbonyl}amino)-3-{[4-(3-chloro-4H-1,2,4-triazol-5-yl)phenyl]amino}-3-oxopropyl]-N-[2-(diethylamino)ethyl]biphenyl-3-carboxamide hydrochloride] came in with an IC50 on human factor XIa of 8.3 nM. In the experiment with human and animal plasma, this compound displayed an aPTT of 0.19 µmol/L.
On the same counts, the results for `NC[C@H]1CC[C@H](C(=O)N[C@@H](Cc2cccc(-c3ccc(C(=O)NCCN4CCCC4)cc3)c2)C(=O)Nc2ccc(-c3nnn[nH]3)cc2)CC1` [Example 41, 3′-[(2S)-2-({[trans-4-(Aminomethyl)cyclohexyl]carbonyl}amino)-3-oxo-3-{[4-(1H-tetrazol-5-yl)phenyl]amino}propyl]-N-[2-(pyrrolidin-1-yl)ethyl]biphenyl-4-carboxamide hydrochloride] are 8.4 nM and 0.32 µmol/L.
As for `CCN(CC)CCNC(=O)c1ccc(-c2cccc(C[C@H](NC(=O)[C@H]3CC[C@H](CN)CC3)C(=O)Nc3ccc(-c4nnn[nH]4)cc3)c2)cc1` [Example 42, 3′-[(2S)-2-({[trans-4-(Aminomethyl)cyclohexyl]carbonyl}amino)-3-oxo-3-{[4-(1H-tetrazol-5-yl)phenyl]amino}propyl]-N-[2-(diethylamino)ethyl]biphenyl-4-carboxamide hydrochloride], 11 nM corresponded to half-maximal inhibition against human factor XIa (IC50). This compound also returned an aPTT with human and animal plasma of 0.35 µmol/L.
On the same counts, the results for `CN(C)C(=O)c1cccc(-c2cccc(C[C@H](NC(=O)[C@H]3CC[C@H](CN)CC3)C(=O)Nc3ccc(-c4nnn[nH]4)cc3)c2)c1` [Example 43, 3′-[(2S)-2-({[trans-4-(Aminomethyl)cyclohexyl]carbonyl}amino)-3-oxo-3-{[4-(1H-tetrazol-5-yl)phenyl]amino}propyl]-N,N-dimethylbiphenyl-3-carboxamide hydrochloride] are 5.2 nM and 0.26 µmol/L.
On the same counts, the results for `Cc1ccc(S(=O)(=O)N(C)C)cc1-c1cccc(C[C@H](NC(=O)[C@H]2CC[C@H](CN)CC2)C(=O)Nc2ccc3[nH]c(=O)[nH]c3c2)c1` [Example 44, trans-4-(Aminomethyl)-N-{(2S)-3-[5′-(dimethylsulphamoyl)-2′-methylbiphenyl-3-yl]-1-oxo-1-[(2-oxo-2,3-dihydro-1H-benzimidazol-5-yl)amino]propan-2-yl}cyclohexanecarboxamide hydrochloride] are 13 nM and 0.28 µmol/L.
The like results for `CON(C)C(=O)c1ccc(F)c(-c2cccc(C[C@H](NC(=O)[C@H]3CC[C@H](CN)CC3)C(=O)Nc3ccc(-c4nnn[nH]4)cc3)c2)c1` [Example 45, 3′-[(2S)-2-({[trans-4-(Aminomethyl)cyclohexyl]carbonyl}amino)-3-oxo-3-{[4-(1H-tetrazol-5-yl)phenyl]amino}propyl]-6-fluoro-N-methoxy-N-methylbiphenyl-3-carboxamide hydrochloride] were, in that order, 5.8 nM and 0.3 µmol/L.
In turn, `CN1CCN(C(=O)c2ccc(-c3cccc(C[C@H](NC(=O)[C@H]4CC[C@H](CN)CC4)C(=O)Nc4ccc(-c5nnn[nH]5)cc4)c3)cc2)CC1` [Example 46, trans-4-(Aminomethyl)-N-[(2S)-3-{4′-[(4-methylpiperazin-1-yl)carbonyl]biphenyl-3-yl}-1-oxo-1-{[4-(1H-tetrazol-5-yl)phenyl]amino}propan-2-yl]cyclohexanecarboxamide hydrochloride] displayed an IC50 against human factor XIa of 7.9 nM. For the same compound, the aPTT with human and animal plasma is 0.32 µmol/L.
Turning to `NC[C@H]1CC[C@H](C(=O)N[C@@H](Cc2cccc(-c3cccc(C(=O)N4CCOCC4)c3)c2)C(=O)Nc2ccc(-c3nnn[nH]3)cc2)CC1` [Example 47, trans-4-(Aminomethyl)-N-[(2S)-3-[3′-(morpholin-4-ylcarbonyl)biphenyl-3-yl]-1-oxo-1-{[4-(1H-tetrazol-5-yl)phenyl]amino}propan-2-yl]cyclohexanecarboxamide hydrochloride], on human factor XIa, the midpoint of inhibition, the IC50, lay at 5.2 nM. In the experiment with human and animal plasma, the aPTT is 0.34 µmol/L.
The like results for `NC[C@H]1CC[C@H](C(=O)N[C@@H](Cc2cccc(-c3ccc(C(=O)N4CCN(CCO)CC4)cc3)c2)C(=O)Nc2ccc(-c3nnn[nH]3)cc2)CC1` [Example 48, trans-4-(Aminomethyl)-N-[(2S)-3-(4′-{[4-(2-hydroxyethyl)piperazin-1-yl]carbonyl}biphenyl-3-yl)-1-oxo-1-{[4-(1H-tetrazol-5-yl)phenyl]amino}propan-2-yl]cyclohexanecarboxamide hydrochloride] were, in that order, 6.9 nM and 0.44 µmol/L.
On the same counts, the results for `Cc1ccc(C[C@H](NC(=O)[C@H]2CC[C@H](CN)CC2)C(=O)Nc2ccc(-c3nnn[nH]3)cc2)cc1-c1ccc(C(=O)NC2CCNCC2)cc1` [Example 49, 5′-[(2S)-2-({[trans-4-(Aminomethyl)cyclohexyl]carbonyl}amino)-3-oxo-3-{[4-(1H-tetrazol-5-yl)phenyl]amino}propyl]-2′-methyl-N-(piperidin-4-yl)biphenyl-4-carboxamide hydrochloride] are 21 nM and 0.47 µmol/L.
The like results for `NC[C@H]1CC[C@H](C(=O)N[C@@H](Cc2cccc(-c3ccc(C(=O)NC4CCNCC4)cc3)c2)C(=O)Nc2ccc3cn[nH]c3c2)CC1` [Example 51, 3′-[(2S)-2-({[trans-4-(Aminomethyl)cyclohexyl]carbonyl}amino)-3-(1H-indazol-6-ylamino)-3-oxopropyl]-N-(piperidin-4-yl)biphenyl-4-carboxamide hydrochloride] were, in that order, 36 nM and 0.33 µmol/L.
For `Cc1ccc(S(=O)(=O)N2CCOCC2)cc1-c1cccc(C[C@H](NC(=O)[C@H]2CC[C@H](CN)CC2)C(=O)Nc2ccc(-c3noc(=O)[nH]3)cc2)c1` [Example 52, trans-4-(Aminomethyl)-N-[(2S)-3-[2′-methyl-5′-(morpholin-4-ylsulphonyl)biphenyl-3-yl]-1-oxo-1-{[4-(5-oxo-4,5-dihydro-1,2,4-oxadiazol-3-yl)phenyl]amino}propan-2-yl]cyclohexanecarboxamide hydrochloride], on human factor XIa, the midpoint of inhibition, the IC50, lay at 1.8 nM. The aPTT with human and animal plasma came to 0.06 µmol/L.
